Measurements: ChEMBL document CHEMBL2401638, “Design and synthesis of biquinolone-isoniazid hybrids as a new class of antitubercular and antimicrobial agents” (Eur J Med Chem, 2013)
In brackets after ≈: the same amount, converted by molar mass.

Assays:
[1] = test system: Bacillus subtilis; experiment: Antibacterial activity against Bacillus subtilis MTCC 441 assessed as growth inhibition by broth microdilution method; assay type: functional
[2] = test system: Salmonella typhi; experiment: Antibacterial activity against Salmonella typhi MTCC 98 assessed as growth inhibition by broth microdilution method; assay type: functional, Salmonella enterica subsp. enterica serovar Typhi; conditions: Salmonella enterica
[3] = test system: Clostridium tetani; experiment: Antibacterial activity against Clostridium tetani MTCC 449 assessed as growth inhibition by broth microdilution method; assay type: functional
[4] = test system: Candida albicans; experiment: Antifungal activity against Candida albicans MTCC 227 assessed as growth inhibition by broth microdilution method; assay type: functional
[5] = test system: Pseudomonas aeruginosa; experiment: Antibacterial activity against Pseudomonas aeruginosa MTCC 1688 assessed as growth inhibition by broth microdilution method; assay type: functional
[6] = test system: Staphylococcus aureus; experiment: Antibacterial activity against Staphylococcus aureus MTCC 96 assessed as growth inhibition by broth microdilution method; assay type: functional
[7] = test system: Trichophyton rubrum; experiment: Antifungal activity against Trichophyton rubrum MTCC 296 assessed as growth inhibition by broth microdilution method; assay type: functional
[8] = test system: Mycobacterium tuberculosis; experiment: Antituberculosis activity against Mycobacterium tuberculosis H37Rv assessed as growth inhibition at 250 ug/ml after 12 to 28 days by Lowenstein-Jensen method relative to control; assay type: functional; conditions: read-out: GI
[9] = test system: Escherichia coli; experiment: Antibacterial activity against Escherichia coli MTCC 443 assessed as growth inhibition by broth microdilution method; assay type: functional
[10] = Cytotoxicity in Artemia cysts assessed as mortality of nauplii at 5 ug/mL after 24 hrs relative to control; assay type: organism-based; conditions: in vivo
[11] = Cytotoxicity in Artemia cysts assessed as mortality of nauplii after 24 hrs; assay type: organism-based; conditions: in vivo
[12] = Cytotoxicity in Artemia cysts assessed as mortality of nauplii at 40 ug/mL after 24 hrs relative to control; assay type: organism-based; conditions: in vivo
[13] = Cytotoxicity in Artemia cysts assessed as mortality of nauplii at 50 ug/mL after 24 hrs relative to control; assay type: organism-based; conditions: in vivo
[14] = Cytotoxicity in Artemia cysts assessed as mortality of nauplii at 30 ug/mL after 24 hrs relative to control; assay type: organism-based; conditions: in vivo
[15] = Cytotoxicity in Artemia cysts assessed as mortality of nauplii at 10 ug/mL after 24 hrs relative to control; assay type: organism-based; conditions: in vivo
[16] = test system: Mycobacterium tuberculosis; experiment: Antituberculosis activity against Mycobacterium tuberculosis H37Rv assessed as growth inhibition after 12 to 28 days by Lowenstein-Jensen method; assay type: functional
[17] = Cytotoxicity in Artemia cysts assessed as mortality of nauplii at 20 ug/mL after 24 hrs relative to control; assay type: organism-based; conditions: in vivo

Molecule	MIC [1] [µg/mL]	MIC [2] [µg/mL]	MIC [3] [µg/mL]	MIC [4] [µg/mL]	MIC [5] [µg/mL]	MIC [6] [µg/mL]	MIC [7] [µg/mL]	inhibition of growth at 250 µg/mL [8] [%]	MIC [9] [µg/mL]	mortality at 24 h, 5 ug/mL [10] [%]	LC50 at 24 h [11] [µg/mL]	mortality at 24 h, 40 ug/mL [12] [%]	mortality at 24 h, 50 ug/mL [13] [%]	mortality at 24 h, 30 ug/mL [14] [%]	mortality at 24 h, 10 ug/mL [15] [%]	MIC [16] [µg/mL]	mortality at 24 h, 20 ug/mL [17] [%]
C=CCn1c(=O)c(C2C(C(=O)OCC)=C(N)N(NC(=O)c3ccncc3)C3=C2C(=O)CCC3)cc2cc(OC)ccc21 (stereo not drawn)	200	500	100	250	200	125	1000	54	250								
O=C(N[C@H](CO)[C@H](O)c1ccc([N+](=O)[O-])cc1)C(Cl)Cl [CHLORAMPHENICOL]	50	50	50		50	50			50								
C=CCn1c(=O)c(C2C(C(=O)OCC)=C(N)N(NC(=O)c3ccncc3)C3=C2C(=O)CCC3)cc2cc(C)ccc21 (stereo not drawn)	250	500	62.5	500	250	100	100	23	500								
C=CCn1c(=O)c(C2C(C(=O)OC)=C(N)N(NC(=O)c3ccncc3)C3=C2C(=O)CC(C)(C)C3)cc2cc(Cl)ccc21 (stereo not drawn)	500	200	100	500	500	200	1000	87	250								
C=CCn1c(=O)c(C2C(C(=O)OCC)=C(N)N(NC(=O)c3ccncc3)C3=C2C(=O)CC(C)(C)C3)cc2cc(OC)ccc21 (stereo not drawn)	125	125	250	500	125	200	1000	96	250	10	26.6 (≈ 44.5 µM)	60	80	50	20	100 (≈ 167 µM)	30
C=CCn1c(=O)c(C2C(C(=O)OC(C)C)=C(N)N(NC(=O)c3ccncc3)C3=C2C(=O)CC(C)(C)C3)cc2ccccc21 (stereo not drawn)	500	25	500	1000	250	500	250	78	200								
COC1=CC(=O)C[C@@H](C)[C@]12Oc1c(Cl)c(OC)cc(OC)c1C2=O [GRISEOFULVIN]				500			100										
C=CCn1c(=O)c(C2C(C(=O)OC)=C(N)N(NC(=O)c3ccncc3)C3=C2C(=O)CCC3)cc2cc(C)ccc21 (stereo not drawn)	62.5	250	500	500	100	500	> 1000	58	500								
C=CCn1c(=O)c(C2C(C(=O)OC(C)C)=C(N)N(NC(=O)c3ccncc3)C3=C2C(=O)CC(C)(C)C3)cc2cc(OC)ccc21 (stereo not drawn)	250	250	500	1000	250	500	500	74	200								
C=CCn1c(=O)c(C2C(C(=O)OC)=C(N)N(NC(=O)c3ccncc3)C3=C2C(=O)CC(C)(C)C3)cc2ccccc21 (stereo not drawn)	125	200	200	250	125	200	> 1000	74	200								
C=CCn1c(=O)c(C2C(C(=O)OCC)=C(N)N(NC(=O)c3ccncc3)C3=C2C(=O)CC(C)(C)C3)cc2cc(Cl)ccc21 (stereo not drawn)	200	200	250	1000	100	250	500	56	200								
CC1(C)S[C@@H]2[C@H](NC(=O)[C@H](N)c3ccccc3)C(=O)N2[C@H]1C(=O)O [AMPICILLIN]	250	100	250			250			100								
C=CCn1c(=O)c(C2C(C(=O)OCC)=C(N)N(NC(=O)c3ccncc3)C3=C2C(=O)CCC3)cc2cc(Cl)ccc21 (stereo not drawn)	250	250	125	250	500	100	1000	87	100								
C=CCn1c(=O)c(C2C(C(=O)OC)=C(N)N(NC(=O)c3ccncc3)C3=C2C(=O)CCC3)cc2ccccc21 (stereo not drawn)	100	250	125	500	50	125	500	74	500								
NNC(=O)c1ccncc1 [ISONIAZID]								99								0.2 (≈ 1.46 µM)	
C=CCn1c(=O)c(C2C(C(=O)OC)=C(N)N(NC(=O)c3ccncc3)C3=C2C(=O)CCC3)cc2cc(Cl)ccc21 (stereo not drawn)	500	200	200	1000	500	250	1000	89	250								
C=CCn1c(=O)c(C2C(C(=O)OC)=C(N)N(NC(=O)c3ccncc3)C3=C2C(=O)CC(C)(C)C3)cc2cc(OC)ccc21 (stereo not drawn)	250	200	200	1000	250	250	500	45	200								
C=CCn1c(=O)c(C2C(C(=O)OC(C)C)=C(N)N(NC(=O)c3ccncc3)C3=C2C(=O)CCC3)cc2cc(OC)ccc21 (stereo not drawn)	250	250	250	250	250	250	1000	27	200								
C=CCn1c(=O)c(C2C(C(=O)OC(C)C)=C(N)N(NC(=O)c3ccncc3)C3=C2C(=O)CCC3)cc2cc(Cl)ccc21 (stereo not drawn)	200	500	200	500	200	200	500	89	250								
COc1cc([C@@H]2c3cc4c(cc3[C@@H](O[C@@H]3O[C@@H]5CO[C@@H](C)O[C@H]5[C@H](O)[C@H]3O)[C@H]3COC(=O)[C@H]23)OCO4)cc(OC)c1O [ETOPOSIDE]											7.46 (≈ 12.7 µM)						
C=CCn1c(=O)c(C2C(C(=O)OCC)=C(N)N(NC(=O)c3ccncc3)C3=C2C(=O)CC(C)(C)C3)cc2ccccc21 (stereo not drawn)	500	100	500	250	500	250	500	84	50								
C=CCn1c(=O)c(C2C(C(=O)OC(C)C)=C(N)N(NC(=O)c3ccncc3)C3=C2C(=O)CCC3)cc2cc(C)ccc21 (stereo not drawn)	500	200	500	1000	500	500	1000	22	250								
CCn1cc(C(=O)O)c(=O)c2cc(F)c(N3CCNCC3)cc21 [NORFLOXACIN]	100	10	50		10	10			10								
CO[C@H]1/C=C/O[C@@]2(C)Oc3c(C)c(O)c4c(O)c(c(/C=N/N5CCN(C)CC5)c(O)c4c3C2=O)NC(=O)/C(C)=C\C=C\[C@H](C)[C@H](O)[C@@H](C)[C@@H](O)[C@@H](C)[C@H](OC(C)=O)[C@@H]1C [RIFAMPIN]								98								40 (≈ 48.6 µM)	
C=CCn1c(=O)c(C2C(C(=O)OC(C)C)=C(N)N(NC(=O)c3ccncc3)C3=C2C(=O)CCC3)cc2ccccc21 (stereo not drawn)	250	125	500	1000	500	500	500	65	100								
C=CCn1c(=O)c(C2C(C(=O)OCC)=C(N)N(NC(=O)c3ccncc3)C3=C2C(=O)CCC3)cc2ccccc21 (stereo not drawn)	500	250	250	500	500	250	> 1000	51	500								
O=C(O)c1cn(C2CC2)c2cc(N3CCNCC3)c(F)cc2c1=O [CIPROFLOXACIN]		25				50			25								
NYSTATIN				100			100										
